For data set [1] the following is noted: physiological range (pH 6 to 8); cited from earlier work.
Data set [2] in a line: Comparison of spectral properties of reactive dyes, Table 1. Format: physicochemical. To be noted: for Quantum Yield: in aqueous solution, grade in words. An excerpt: A number of dyes have been proposed in the literature that can be excited and detected at wavelengths less than 500 nm. Several chemically reactive fluorophores that can be excited in the near ultraviolet and short wavelength visible region of the spectrum have been described. […] These proposed tracers are derived from naphthalene derivatives such as 5-dimethylaminonaphthalene-1-sulfonic acid (Dansyl) [Weber, Biochem. J. 41:145 (1952); Rinderknecht, Experientin 16:430 (1960)], 3-(isothiocyanato)naphthalene-1,5-disulfonic acid [Braunitzer, et al., Hoppe-Seyler's Z. Physiol. […] Chem. 358:505 (1977)], pyrene derivatives such as pyrene-1-butyric acid (PBA) [Malencik & Anderson, Biochemistry 11:3022 (1972)], 8-isothiocyanatopyrene-1,3,6-trisulfonic acid (IPTS) [Braunitzer,et al., Hoppe-Seyler's Z. Physiol. Chem. 354:1536 (1973)] and 8-hydroxypyrene-1,3,6-trisulfonyl chloride [Wolfbeis, Fresenies Z. Anal. Chem. 320:271 (1985)], stilbene derivatives such as 4-acetamido-4'-isothiocyanatostilbene-2,2'-disulfonic acid (SITS) [Cornelisse & Ploem, J. Histochem. Cytochem. 24:72 (1976)], and coumarin dyes such as 3-carboxy-7-hydroxycoumarin [Baker & Collis, J. Chem. Soc. 1949, S 12 (1949)], 7-hydroxy-4-methylumbelliferone-3-acetic acid (4-MUA) [Khalfan, et al., Biochem. J. 209:265 (1983)], 7-amino-4-methylcoumarin-3-acetic acid (AMCA) [Khalfan, et al., Histochem. J. 18:497 (1986)] and 7-diethylaminocoumarin [Staines, et al. (1988)].

Data set [3] in a line: Solubility in water / aqueous solution. To be noted: solubility of the reactive form of the dye; grade in words.
For data set [4] the following is noted: cited from earlier work.
The test system of a further data set is Swiss-Webster mice. The conditions noted are these: mouse, in vivo; cited from earlier work.
In data set [5] the test system is microsomal glucose-6-phosphatase. To be noted: cited from earlier work.
The subject of data set [6] is anion transport systems in red blood cells. To be noted: cited from earlier work.
For data set [7] the following is noted: background statement; cited from earlier work.
Data set [8] in a line: Spectral properties (absorption/emission) of new pyrenyloxy sulfonic acid dyes, Table 4. The data set is classed as physicochemical. To be noted: 50 mM aqueous potassium phosphate buffer at pH 8.0. The method, then: Stock solutions were prepared by accurately weighing and dissolving 5-10 mg samples of the compounds in 2.000 ml water. A 10 μl aliquot of the stock solution was diluted into 2.00 ml of 50 mM potassium phosphate buffer at pH 8.0. Absorbance solutions were prepared by further diluting 200 μl of the diluted stock solution to 2.000 ml with 50 mM potassium phosphate buffer at pH 8.0. Absorption data was collected on an IBM Model 9420 UV/Visible Spectrophotometer and extinction coefficients were determined by standard Beer's Law calculations.
Uncorrected fluorescence data was obtained on a Perkin-Elmer Model 650-40 Fluorescence Spectrophotometer equipped with a Perkin-Elmer/Hitachi 057 X-Y Recorder using a ten- to twentyfold dilution of the absorbance solutions. Fluorescence of the pyrenyloxy sulfonic acid dyes was determined for the reactive dyes and for their conjugates with model compounds by dissolving the dye at a concentration above 1×10^-8M in an appropriate solvent such as water, methanol, ethanol, or dimethylsulfoxide and measurement of the fluorescence in a suitable instrument, such as a fluorescence spectrometer or fluorescence microscope or flow cytometer. Fluorescence could also be observed for the dyes in solution by visual inspection with illumination by a suitable source that emits light at wavelengths of less than 420 nm.

Data set [9] can be described thus: Quantum yield relative to quinine sulfate. Format: physicochemical. To be noted: in 50 mM phosphate buffer at pH 8.0. An excerpt: An estimate of the quantum yield of the dyes relative to quinine sulfate (quantum yield=0.55 in 1N sulfuric acid) was obtained by integrating the emission spectrum of the dye excited at the same wavelength and optical density as the standard.

Data set [10] can be described thus: Emission spectra comparison of equimolar solutions / normalized spectra (FIG. 2, FIG. 3). Format: physicochemical. An excerpt:
The narrower spectral width makes the dyes particularly valuable for applications requiring multiple dyes such as flow cytometry, DNA sequencing [Smith, et at. (1985)] and multiparameter microscopy. The utility of the objects of this invention in multiparameter applications is illustrated in FIG. 3. […] The extinction coefficients for the pyrenyloxy sulfonic acid dyes are generally greater than 25,000 cm^-1 M^-1 and the quantum yields of the dyes in aqueous solution are generally above 0.5. In FIG. 4, the emission intensities of bovine serum albumin (BSA) conjugates of the pyrene isothiocyanate IPTS are compared to the BSA conjugates of compound 9. […] The subject dyes show only minor spectral shifts and intensity changes between water, methanol, and ethanol and have absorption and emission spectra that lack significant pH dependence between pH 6 and 10, as illustrated in FIG. 5. Table 4 lists the approximate spectral properties of a number of the dyes and intermediates that are the subject of this invention.

The conditions of data set [11]: in 1N sulfuric acid; cited from earlier work.
Setting [12] is: full bandwidth at half peak height.
Where [13] appears, read: percent of maximum emission at 514 nm.

Counter-ions that a name gives are not always drawn. Like-named read-outs stand apart in the source and are kept apart here.

With `Cc1c(CC(=O)O)c(=O)oc2cc(O)ccc12` [Compound 4-MUA, 7-hydroxy-4-methylumbelliferone-3-acetic acid], the “sensitivity to solution pH” value in [1] is recorded as “high sensitivity to solution pH”. For the same compound, in [2], the “Em. Max.” value is given as 454 nm and the “Quantum Yield” value is recorded as “med”. Further, the ε in data set [2] (at first maximum) was 19100 M⁻¹ cm⁻¹. In addition, in data set [2] (first maximum), the “Abs Max” value worked out at 360 nm. For the same compound, in [2] (setting [12]), the “Emission Bandwidth” value is on record as 58 nm and the “Emission Bandwidth [cm^-1]” value turned out to be 2668 cm⁻¹. Besides, in data set [2] (setting [13]), the “% Emission at 514 nm” value is listed as 20 % of max. The “Water Solubility” value in [3] is on record as “low”.

On to `O=C1OC2(c3ccc(O)cc3Oc3cc(O)ccc32)c2ccccc21` [fluorescein], for which the extinction coefficient in data set [4] (at absorbance maximum) is given as 75,000 cm^-1 M^-1. Further, the emission onset entry in data set [4] (beginning of visible emission) is reported as “approximately 480 nm”.

Take `O=S(=O)([O-])c1cc(O)c2ccc3c(S(=O)(=O)[O-])cc(S(=O)(=O)[O-])c4ccc1c2c34.[Na+].[Na+].[Na+]` [8-hydroxypyrene-1,3,6-trisulfonic acid, trisodium salt]: the “toxicity to Swiss-Webster mice” value with Swiss-Webster mice is on record as “nontoxic to Swiss-Webster mice”.

In the case of `CC(=O)Nc1ccc(/C=C/c2ccc(N=C=S)cc2S(=O)(=O)O)c(S(=O)(=O)O)c1` [SITS, 4-acetamido-4'-isothiocyanatostilbene-2,2'-disulfonic acid], the “effect on microsomal glucose-6-phosphatase” value in [5] is given as “inhibitory effect”. Besides, the “effect on anion transport systems in red blood cells” value in [6] is on record as “inhibitory effect”. The “aqueous solubility / lipophilicity” value in data set [7] was “high water solubility”. Also, in data set [2], the “% Emission at 514 nm” value was determined as 19, the “Abs Max” value is given as 337, the “Em. Max.” value is listed as 438 and the “Emission Bandwidth” value amounted to 82. In data set [2], the “Emission Bandwidth [cm^-1]” value is reported as 4825, the ε came to 37400 M⁻¹ cm⁻¹ and the “Quantum Yield” value was “low”. Besides, the “Water Solubility” value in data set [3] is “high”.

Consider `NNC(=O)COc1cc(S(=O)(=O)[O-])c2ccc3c(S(=O)(=O)[O-])cc(S(=O)(=O)[O-])c4ccc1c2c43.[Na+].[Na+].[Na+]` [Compound 12, 1,3,6-Trisulfo-8-pyrenyloxyacethydrazide, trisodium salt], for which, in [8], the “Emission Band-width” value is 50 nm. Further, the “Emission at 514 nm” value in data set [8] is recorded as 3.9 % of max. Further, the “Abs Max” value amounted to 399 nm in [8] (first (longer-wavelength) maximum), 377 nm in [8] (second (shorter-wavelength) maximum), 399 nm in data set [2] (first maximum) and 376 nm in data set [2] (second maximum). Besides, the Quantum Yield is listed as 0.54 in data set [9] and “high” in data set [2]. The “resolution of emission from fluorescein and Lucifer Yellow CH” value in data set [10] is recorded as “emission which is well resolved from the emission bands of both these widely used dyes”. Also, the ε stood at 28000 M⁻¹ cm⁻¹ in data set [2] (at first maximum) and 23300 M⁻¹ cm⁻¹ in data set [2] (at second maximum). Further, the “Emission Bandwidth” value in data set [2] (setting [12]) is listed as 50 nm. Also, the “Emission Bandwidth [cm^-1]” value in [2] (setting [12]) is 2168 cm⁻¹. Moreover, the “% Emission at 514 nm” value in data set [2] (setting [13]) is on record as 3.8 % of max. The “Water Solubility” value in [3] is given as “high”.

In the case of `O=S(=O)(O)c1cc(O)c2ccc3c(S(=O)(=O)O)cc(S(=O)(=O)O)c4ccc1c2c34` [8-hydroxypyrene-1,3,6-trisulfonic acid], in the data set on Swiss-Webster mice, the LD50 result was “exceeding 1000 mg/kg”.

`O=S(=O)(Cl)c1cc(O)c2ccc3c(S(=O)(=O)Cl)cc(S(=O)(=O)Cl)c4ccc1c2c34` [hydroxypyrenetrisulfonyl chloride, 8-hydroxypyrene-1,3,6-trisulfonyl chloride]: the “sensitivity to solution pH” value in data set [1] is reported as “high sensitivity to solution pH”.

`C=C[C@H]1C[N@@]2CC[C@H]1C[C@H]2[C@H](O)c1ccnc2ccc(OC)cc12` [quinine sulfate]: the “quantum yield of standard” value in data set [11] is listed as 0.55.

(Values after US5132432A, “Chemically reactive pyrenyloxy sulfonic acid dyes” (Molecular Probes, Inc., priority 1989, dated 1992).)
